From patent publication US12077503B2, “Substituted cyclic amides and their use as herbicides” (FMC CORPORATION, priority 2015, dated 2024)

Experiments:
Format in all cases: in vivo
[1] = tested on: giant foxtail (Setaria faberii); test: Test A postemergence; conditions: Setaria faberi, post-emergence, 240 h, read-out: Plant response rating, Foxtail, Giant
How it was run: (§1)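 Greenhouse, ~10 d after spray; visual injury vs untreated controls, 0 = no effect, 100 = complete control. Preemergence: directed soil spray over planted seeds. Postemergence: plants 2–10 cm, 1–2 leaf stage. Loam/sand blend. Compound in non-phytotoxic solvent with surfactant.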

[2] = tested on: ragweed (common ragweed, Ambrosia elatior); test: Test A postemergence; conditions: Ambrosia artemisiifolia, post-emergence, 240 h, read-out: Plant response rating, Ragweed
How it was run: as §1

corn (Zea mays) = test: Test A postemergence; conditions: Zea mays, post-emergence, 240 h
How it was run: as §1

[3] = tested on: barnyardgrass (Echinochloa crus-galli); test: Test A postemergence; conditions: Echinochloa crus-galli, post-emergence, 240 h, read-out: Plant response rating, Barnyardgrass
How it was run: as §1

[4] = tested on: blackgrass (Alopecurus myosuroides); test: Test A postemergence; conditions: Alopecurus myosuroides, post-emergence, 240 h, read-out: Plant response rating, Blackgrass
How it was run: as §1

[5] = tested on: pigweed (Amaranthus retroflexus); test: Test A postemergence; conditions: Amaranthus retroflexus, post-emergence, 240 h, read-out: Plant response rating, Pigweed
How it was run: as §1

[6] = tested on: ryegrass, Italian (Italian ryegrass, Lolium multiflorum); test: Test A postemergence; conditions: Lolium multiflorum, post-emergence, 240 h, read-out: Plant response rating, Ryegrass, Italian
How it was run: as §1

[7] = tested on: Galium (catchweed bedstraw, Galium aparine); test: Test A postemergence; conditions: Galium, post-emergence, 240 h, read-out: Plant response rating, Galium
How it was run: as §1

Kochia (Kochia scoparia) [8] = test: Test A postemergence; conditions: Bassia scoparia, post-emergence, 240 h, read-out: Plant response rating, Kochia
How it was run: as §1

[9] = tested on: wheat (Triticum aestivum); test: Test A postemergence; conditions: Triticum aestivum, post-emergence, 240 h, read-out: Plant response rating, Wheat
How it was run: as §1

[10] = tested on: giant foxtail (Setaria faberii); test: Test A preemergence; conditions: Setaria faberi, pre-emergence, 240 h
How it was run: as §1

[11] = tested on: ragweed (common ragweed, Ambrosia elatior); test: Test A preemergence; conditions: Ambrosia artemisiifolia, pre-emergence, 240 h
How it was run: as §1

[12] = tested on: barnyardgrass (Echinochloa crus-galli); test: Test A preemergence; conditions: Echinochloa crus-galli, pre-emergence, 240 h
How it was run: as §1

[13] = tested on: pigweed (Amaranthus retroflexus); test: Test A preemergence; conditions: Amaranthus retroflexus, pre-emergence, 240 h
[14] = tested on: ryegrass, Italian (Italian ryegrass, Lolium multiflorum); test: Test A preemergence; conditions: Lolium multiflorum, pre-emergence, 240 h
How it was run: as §1

Kochia (Kochia scoparia) [15] = test: Test A preemergence; conditions: Bassia scoparia, pre-emergence, 240 h
How it was run: as §1

[16] = tested on: ducksalad (Heteranthera limosa); test: Test B flooded paddy test; conditions: Heteranthera limosa, 250 g ai/ha, Flood; 0 to 100 scale where 0 is no effect and 100 is complete control; read-out: Ducksalad plant response rating
How it was run: (§2)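 Plants at 2-leaf stage flooded to 3 cm above soil, with compounds applied directly to paddy water and that depth maintained. Plants kept in greenhouse 13–15 d. Visual rating versus controls on a 0 (no effect) to 100 (complete control) scale.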

rice (Oryra sativa) = test: Test B flooded paddy test; conditions: Oryza sativa, 250 g ai/ha, Flood; 0 to 100 scale where 0 is no effect and 100 is complete control; read-out: Rice plant response rating
How it was run: as §2

[17] = tested on: sedge, umbrella (small-flower umbrella sedge, Cyperus difformis); test: Test B flooded paddy test; conditions: Cyperus difformis, 250 g ai/ha, Flood; 0 to 100 scale where 0 is no effect and 100 is complete control; read-out: Sedge, Umbrella plant response rating
How it was run: as §2

[18] = tested on: barnyardgrass (Echinochloa crus-galli); test: Test B flooded paddy test; conditions: Echinochloa crus-galli, 250 g ai/ha, Flood; 0 to 100 scale where 0 is no effect and 100 is complete control; read-out: Barnyardgrass plant response rating
How it was run: as §2

[19] = 125 g ai/ha, Postemergence, visual injury after approximately 10 d, 0 to 100 scale where 0 is no effect and 100 is complete control
[20] = 500 g ai/ha, postemergence, visual injury, 0 to 100 scale (0 no effect, 100 complete control), approx. 10 d

Work on Cc1ccc([C@H]2CN(C)C(=O)[C@@H]2C(=O)Nc2ccccc2S(C)(=O)=O)cc1Cl [Compound 1018] yielded a pest or weed control at 125 g/ha [1, 19] of 90%, a pest or weed control at 500 g/ha [1, 20] of 90% and a pest or weed control at 125 g/ha [2, 19] of 0%. It also gave a pest or weed control at 500 g/ha [2, 20] of 30%, a Corn plant response rating (crop injury, 0 = no effect, 100 = complete kill) at 125 g/ha (corn (Zea mays); [19]) of 70% and a Corn plant response rating (crop injury, 0 = no effect, 100 = complete kill) at 500 g/ha (corn (Zea mays); [20]) of 90%. It also gave a pest or weed control at 125 g/ha [3, 19] of 90%, a pest or weed control at 500 g/ha [3, 20] of 90% and a pest or weed control at 125 g/ha [4, 19] of 0%. The pest or weed control at 500 g/ha [4, 20] was 50%, the pest or weed control at 125 g/ha [5, 19] was 30% and the pest or weed control at 500 g/ha [5, 20] was 60%. It also gave a pest or weed control at 125 g/ha [6, 19] of 30%, a pest or weed control at 500 g/ha [6, 20] of 60% and a pest or weed control at 125 g/ha [7, 19] of 30%. For the same molecule, the pest or weed control at 500 g/ha [7, 20] was 60%, the pest or weed control at 125 g/ha (Kochia (Kochia scoparia) [8]; [19]) was 30% and the pest or weed control at 500 g/ha (Kochia (Kochia scoparia) [8]; [20]) was 50%. For the same molecule, the plant injury at 125 g/ha [9, 19] was 30%, the plant injury at 500 g/ha [9, 20] was 50% and the pest or weed control at 125 g/ha ([10]; 125 g ai/ha, Preemergence, visual injury rating after approximately 10 d, read-out: Foxtail, Giant plant response rating (0 to 100 scale, 0 is no effect, 100 is complete control)) was 90%. The pest or weed control at 500 g/ha ([10]; 500 g ai/ha, preemergence, visual injury rating about 10 d after treatment, 0 to 100 scale (0 no effect, 100 complete control), read-out: Foxtail, Giant plant response rating) was 90%, the pest or weed control at 125 g/ha ([11]; 125 g ai/ha, Preemergence, visual injury rating after approximately 10 d, read-out: Ragweed plant response rating (0 to 100 scale, 0 is no effect, 100 is complete control)) was 0% and the pest or weed control at 500 g/ha ([11]; 500 g ai/ha, preemergence, visual injury rating about 10 d after treatment, 0 to 100 scale (0 no effect, 100 complete control), read-out: Ragweed plant response rating) was 40%. For the same molecule, the pest or weed control at 125 g/ha ([12]; 125 g ai/ha, Preemergence, visual injury rating after approximately 10 d, read-out: Barnyardgrass plant response rating (0 to 100 scale, 0 is no effect, 100 is complete control)) was 90%, the pest or weed control at 500 g/ha ([12]; 500 g ai/ha, preemergence, visual injury rating about 10 d after treatment, 0 to 100 scale (0 no effect, 100 complete control), read-out: Barnyardgrass plant response rating) was 90% and the pest or weed control at 125 g/ha ([13]; 125 g ai/ha, Preemergence, visual injury rating after approximately 10 d, read-out: Pigweed plant response rating (0 to 100 scale, 0 is no effect, 100 is complete control)) was 30%. It also gave a pest or weed control at 500 g/ha ([13]; 500 g ai/ha, preemergence, visual injury rating about 10 d after treatment, 0 to 100 scale (0 no effect, 100 complete control), read-out: Pigweed plant response rating) of 80%, a pest or weed control at 125 g/ha ([14]; 125 g ai/ha, Preemergence, visual injury rating after approximately 10 d, read-out: Ryegrass, Italian plant response rating (0 to 100 scale, 0 is no effect, 100 is complete control)) of 0% and a pest or weed control at 500 g/ha ([14]; 500 g ai/ha, preemergence, visual injury rating about 10 d after treatment, 0 to 100 scale (0 no effect, 100 complete control), read-out: Ryegrass, Italian plant response rating) of 70%. It also gave a pest or weed control at 125 g/ha (Kochia (Kochia scoparia) [15]; 125 g ai/ha, Preemergence, visual injury rating after approximately 10 d, read-out: Kochia plant response rating (0 to 100 scale, 0 is no effect, 100 is complete control)) of 0%, a pest or weed control at 500 g/ha (Kochia (Kochia scoparia) [15]; 500 g ai/ha, preemergence, visual injury rating about 10 d after treatment, 0 to 100 scale (0 no effect, 100 complete control), read-out: Kochia plant response rating) of 60% and a pest or weed control at 250 g/ha [16] of 90%. The pest or weed control at 250 g/ha (rice (Oryra sativa)) was 0%, the pest or weed control at 250 g/ha [17] was 0% and the pest or weed control at 250 g/ha [18] was 65%.
